Source: patent publication US10947196B2, “Beta adrenergic agonist and methods of using the same” (CURASEN THERAPEUTICS, INC., priority 2019, dated 2021)
Read-outs that look alike come from different tables or passages of the source.

How the values were obtained:
[1] = target: β1-adrenergic receptor (Homo sapiens (Human), UniProt P08588); assay: cAMP Gs dynamic HTRF assay, β1 expressing CHO cells; assay type: cell-based; conditions: B1-AR
Protocol: (§1) cAMP homogeneous time-resolved fluorescence (HTRF). Compound efficacy was determined using the cAMP Gs dynamic HTRF assay (Cisbio, catalog #62AM4PEC) largely following the manufacturer's instructions, also detailed below.
(§2) Compound preparation. […] Standard serial dilution curves were 10-point, 5-fold dilutions starting from a highest concentration of 10 μM. […] Assay plates were centrifuged at 500×g for 10 seconds. Compounds and IBMX were prepared at 2× final dose to compensate for addition of cells.
(§3) Cell preparation. 1× stimulation buffer, washing PBS (Dulbecco's phosphate-buffered saline, −Mg −Ca; Caisson Labs, catalog #PBL01), assay PBS (Dulbecco's phosphate-buffered saline, +Mg, +Ca; Caisson Labs, catalog #PBL02) and Versene (0.02% EDTA disodium salt solution in PBS without calcium or magnesium; Caisson Labs, catalog #EDL01) were pre-warmed to 37° C. Cells expressing beta-adrenergic receptor were washed in washing PBS to remove growth medium and then released from the surface by incubating with Versene for 5-10 minutes at 37° C. Cells were harvested using assay PBS, counted manually by hemocytometer or by an automated cell counter, pelleted by centrifugation (200×g, 5 minutes) and resuspended in 37° C. 1× stimulation buffer to a final density of 1.5×10^6 cells/mL. 5 μL of the suspended cell solution (7500 cell total) were added to all wells of the 384 well assay plate, the assay plate was covered with an Axygen® plate seal (Corning PCR-SP) and incubated in a humidified 37° C. environment supplemented with 5% CO2 for 30 minutes.
(§4) HTRF reagent addition, reading and data analysis. After 30 minutes of cell stimulation with test compound, the assay plates were centrifuged at 500×g for 10 seconds, and incubation was stopped with the addition of 5 μL cAMP-D2 acceptor, diluted 1:21 in detection and lysis buffer 2 (Cisbio 62CL2FDF) was added to all cells. Subsequently, 5 μL Anti-cAMP-Eu Donor, diluted 1:21 in detection and lysis buffer 2, was added to cells. Plates were sealed and reactions gently ‘vortexed’ at 900 rpm on a Heidolph Titramax 1000 for at least 30 minutes at room temperature. Plates were centrifuged again at 500×g for 10 seconds, and HTRF was measured using a Tecan Spark plate reader at 50 flashes per well. […] Potency estimates (EC50) were derived from the four-parameter nonlinear regression of the concentration-effect curve and an estimate of relative efficacy was determined by comparing the magnitude of the test compound HTRF signal window (min−max dose) with the signal window of the full agonist control, isoproterenol.

[2] = target: β2 adrenergic receptor (Homo sapiens (Human), UniProt P07550); assay: cAMP Gs dynamic HTRF assay, β2 expressing CHO cells; assay type: cell-based; conditions: B2-AR
β2 adrenergic receptor, sequence (P07550 whole entry, species assumed): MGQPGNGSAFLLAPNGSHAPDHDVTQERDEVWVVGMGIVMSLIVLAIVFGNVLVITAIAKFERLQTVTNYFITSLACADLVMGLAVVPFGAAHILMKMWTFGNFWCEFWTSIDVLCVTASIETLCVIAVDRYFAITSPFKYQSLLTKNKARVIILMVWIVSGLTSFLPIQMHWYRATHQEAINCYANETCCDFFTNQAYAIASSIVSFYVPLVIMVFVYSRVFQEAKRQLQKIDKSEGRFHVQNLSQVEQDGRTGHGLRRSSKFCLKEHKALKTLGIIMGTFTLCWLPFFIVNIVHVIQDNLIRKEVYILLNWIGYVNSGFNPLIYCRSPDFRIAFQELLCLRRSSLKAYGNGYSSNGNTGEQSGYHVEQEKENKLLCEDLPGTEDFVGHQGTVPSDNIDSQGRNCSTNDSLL
Protocol: as §1, §2, §3, §4

[3] = CHO-K cells, read-out: Average EC50 [Receptor subtype: B1-AR, Cell type: CHO-K]
[4] = CHO-K cells, read-out: Average EC50 [Receptor subtype: B2-AR, Cell type: CHO-K]
[5] = CHO-K1 (HitHunter), read-out: Average pEC50 [Receptor subtype: B2-AR, Cell type: CHO-K1 (HitHunter)] (converted)
[6] = CHO-K1 (HitHunter), read-out: Average pEC50 [Receptor subtype: B1-AR, Cell type: CHO-K1 (HitHunter)] (converted)

β1-adrenergic receptor, sequence (P08588 whole entry, species assumed): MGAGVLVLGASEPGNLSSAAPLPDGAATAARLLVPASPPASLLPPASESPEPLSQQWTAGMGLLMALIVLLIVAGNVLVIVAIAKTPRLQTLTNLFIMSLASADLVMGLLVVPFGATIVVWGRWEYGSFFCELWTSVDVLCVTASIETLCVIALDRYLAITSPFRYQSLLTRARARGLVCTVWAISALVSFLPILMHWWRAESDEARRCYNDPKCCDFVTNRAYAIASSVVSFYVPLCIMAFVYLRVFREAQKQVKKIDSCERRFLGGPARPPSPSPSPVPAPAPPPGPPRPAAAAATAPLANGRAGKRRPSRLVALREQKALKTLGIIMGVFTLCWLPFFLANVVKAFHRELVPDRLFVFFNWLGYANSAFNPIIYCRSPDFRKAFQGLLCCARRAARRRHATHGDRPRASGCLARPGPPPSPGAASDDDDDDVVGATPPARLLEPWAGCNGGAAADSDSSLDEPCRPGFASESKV

Structure (SMILES) | Average pEC50 [Receptor subtype: B1-AR; Cell type: CHO-K1 (HitHunter)] ([1]; CHO-K1 (HitHunter)) | EC50 [1, 3] [nM] | Average pEC50 [Receptor subtype: B2-AR; Cell type: CHO-K1 (HitHunter)] ([2]; CHO-K1 (HitHunter)) | EC50 [2, 4] [nM] | EC50 [2, 5] [nM] | EC50 [1, 6] [nM]
CC(C)(C)NC[C@@H](O)c1cccc(C#N)n1 [Compound 03-48, (R)-6-(2-(tert-butylamino)-1-hydroxyethyl)picolinonitrile] | D (D < 6) | > 1000 | C-D | > 1000 | – | –
CC(C)c1ncccc1[C@@H](O)CNC(C)(C)C [Compound 03-51] | D (D < 6) | > 1000 | – | > 1000 | > 1000 | –
CC(C)(C)NC[C@H](O)c1cccnc1N1CCCC1 [Compound 03-60] | D (D < 6) | > 1000 | – | > 1000 | > 1000 | –
Cc1ccc([C@@H](O)CNC(C)(C)C)c(C2CCCC2)n1 [Compound 03-65] | – | – | – | – | 10 to 100 | > 1000
CC(C)(C)NC[C@H](O)c1cccnc1C1CCC1 [Compound 03-68] | – | – | – | – | 10 to 100 | 100 to 1000
CC(C)(C)NC[C@H](O)c1cccnc1-n1nccn1 [Compound 03-74] | – | – | – | – | > 1000 | > 1000
C#Cc1ncccc1[C@@H](O)CNC(C)(C)C [Compound 03-75] | – | – | – | – | > 1000 | > 1000
CC(C)(C)NC[C@H](O)c1cccnc1-c1c[nH]nn1 [Compound 03-76] | – | – | – | – | 100 to 1000 | 100 to 1000
CC(C)(C)NC[C@H](O)c1cccnc1C(C)(F)F [Compound 03-83] | – | – | – | – | 100 to 1000 | > 1000
CC(C)(C)NC[C@H](O)c1cccc(N)n1 [Compound 03-98] | – | – | – | – | > 1000 | > 1000
Cc1cc([C@H](O)CNC(C)(C)C)ccn1 [Compound 03-109] | – | – | – | – | 100 to 1000 | 100 to 1000
CC(C)(C)NCC(O)c1cccnc1Cl (stereo not shown) [Compound 03-114] | – | 100 to 1000 | – | 10 to 100 | 10 to 100 | 100 to 1000
CC(C)(C)NC[C@@H](O)c1cccc(C2CCOCC2)n1 [Compound 03-122] | – | > 1000 | – | 100 to 1000 | 100 to 1000 | > 1000
CC(C)(C)NC[C@@H](O)c1ccc(C(F)(F)F)cn1 [Compound 03-125] | – | 100 to 1000 | – | 100 to 1000 | 100 to 1000 | 100 to 1000
Cc1ccc([C@H](O)CNC(C)(C)C)nc1 [Compound 03-128] | – | > 1000 | – | > 1000 | > 1000 | > 1000
CC(C)(C)NC[C@H](O)c1cccc(N2CCCCC2)n1 [Compound 03-137] | – | 100 to 1000 | – | < 10 | < 10 | 100 to 1000
Cc1ccc(-c2cccc([C@@H](O)CNC(C)(C)C)n2)cc1 [Compound 03-143] | – | > 1000 | – | – | 100 to 1000 | > 1000
CC(C)(C)NC[C@H](O)c1cccc(-c2ccc(F)cc2)n1 [Compound 03-145] | – | 10 to 100 | – | < 10 | < 10 | 10 to 100
Cc1cccc(-c2cccc([C@@H](O)CNC(C)(C)C)n2)c1 [Compound 03-147] | – | 10 to 100 | – | < 10 | < 10 | 10 to 100
Cc1cccc(-c2cccc([C@H](O)CNC(C)(C)C)n2)c1 [Compound 03-148] | – | 100 to 1000 | – | 100 to 1000 | 100 to 1000 | 100 to 1000
Cc1ccccc1-c1cccc([C@@H](O)CNC(C)(C)C)n1 [Compound 03-149] | – | 100 to 1000 | – | < 10 | < 10 | 100 to 1000
CN(C)c1cccc([C@H](O)CNC(C)(C)C)n1 [Compound 03-154] | – | > 1000 | – | > 1000 | > 1000 | > 1000
CC(C)(C)NC[C@H](O)c1cccc(-c2ccccc2F)n1 [Compound 03-155] | – | 10 to 100 | – | < 10 | < 10 | 10 to 100
CC(C)(C)NC[C@@H](O)c1cccc(-c2ccccc2F)n1 [Compound 03-156] | – | > 1000 | – | 10 to 100 | 10 to 100 | > 1000
CCN(CC)c1cccc([C@H](O)CNC(C)(C)C)n1 [Compound 03-160] | – | 100 to 1000 | – | – | 100 to 1000 | –
CC(C)(C)NC[C@H](O)c1ccc2ccccc2n1 [Compound 03-165] | – | < 10 | – | < 10 | – | –
CC(C)(C)NC[C@@H](O)c1ccc2ccccc2n1 [Compound 03-166] | – | 100 to 1000 | – | 100 to 1000 | – | –

Further lines, with some results ahead:

Average pEC50 [Receptor subtype: B1-AR; Cell type: CHO-K1 (HitHunter)] ([1]; CHO-K1 (HitHunter)) | EC50 [1, 3] [nM] | Average pEC50 [Receptor subtype: B2-AR; Cell type: CHO-K1 (HitHunter)] ([2]; CHO-K1 (HitHunter)) | EC50 [2, 4] [nM] | EC50 [2, 5] [nM] | Structure (SMILES) | EC50 [1, 6] [nM]
– | – | – | – | 100 to 1000 | CNC(=O)c1cccc([C@@H](O)CNC(C)(C)C)n1 [Compound 03-85] | > 1000
– | – | – | – | 100 to 1000 | CC(C)(C)NC[C@H](O)c1cccc(C2=NCCN2)n1 [Compound 03-86] | > 1000
– | – | – | – | > 1000 | Cc1ccc([C@@H](O)CNC(C)(C)C)c(C2=CCCC2)n1 [Compound 03-90] | > 1000
– | – | – | – | > 1000 | CC(C)(C)NC[C@H](O)c1cc(C(F)(F)F)cnc1C1=CCCC1 [Compound 03-92] | > 1000
– | – | – | – | > 1000 | CC(C)(C)NC[C@H](O)c1ccnc(C#N)c1 [Compound 03-110] | > 1000
C (C = <7-6) | 100 to 1000 | – | 10 to 100 | 10 to 100 | CC(C)(C)NC[C@@H](O)c1cccc(-n2cccc2)n1 [Compound 03-124] | –
B (B = 8-7) | 10 to 100 | – | < 10 | < 10 | CC(C)(C)NC[C@H](O)c1cccc(-c2cccc(Cl)c2)n1 [Compound 03-129] | –
C (C = <7-6) | 100 to 1000 | – | 10 to 100 | 10 to 100 | CC(C)(C)NC[C@@H](O)c1cccc(-c2cccc(Cl)c2)n1 [Compound 03-130] | –
B (B = 8-7) | 10 to 100 | – | < 10 | < 10 | CC(C)(C)NC[C@H](O)c1cccc(-c2cccc(F)c2)n1 [Compound 03-131] | –
C (C = <7-6) | 100 to 1000 | – | < 10 | < 10 | CC(C)(C)NC[C@H](O)c1cccc(-c2ccccc2Cl)n1 [Compound 03-133] | –
C (C = <7-6) | 100 to 1000 | – | < 10 | < 10 | CC(C)(C)NC[C@H](O)c1cccc(N2CC3CCCC3C2)n1 (stereo partly shown) [Compound 03-135] | –
B (B = 8-7) | 10 to 100 | – | < 10 | < 10 | CC(C)(C)NC[C@H](O)c1cccc(-c2cccnc2)n1 [Compound 03-151] | –
D (D < 6) | > 1000 | – | 100 to 1000 | 10 to 100 | CC(C)(C)NC[C@@H](O)c1cccc(-c2cccnc2)n1 [Compound 03-152] | –
A (A > 8) | < 10 | – | < 10 | < 10 | CC(C)(C)NC[C@H](O)c1cccc(N2CCOCC2)n1 [Compound 03-157] | –
D (D < 6) | > 1000 | – | 10 to 100 | 10 to 100 | CC(C)(C)NC[C@@H](O)c1cccc(N2CCOCC2)n1 [Compound 03-158] | –
– | < 10 | – | < 10 | – | CC(C)(C)NC[C@H](O)c1ccc2cccc(C(F)(F)F)c2n1 [Compound 03-163] | –
– | 100 to 1000 | – | < 10 | – | CC(C)(C)NC[C@@H](O)c1ccc2cccc(C(F)(F)F)c2n1 [Compound 03-164] | –
D (D < 6) | > 1000 | – | 100 to 1000 | 100 to 1000 | CC(C)(C)NC[C@@H](O)c1cccc(C(C)(F)F)n1 [Compound 03-170] | –
– | > 1000 | – | > 1000 | – | CC(C)(C)NC[C@@H](O)c1nc(C(F)(F)F)cc2ccccc12 [Compound 03-172] | –
